Source: US20240381872A1, “SUBSTITUTED 2,3-DIHYDRO[1,3]THIAZOLO[4,5-B]PYRIDINES, SALTS THEREOF AND THEIR USE AS HERBICIDALLY ACTIVE SUBSTANCES” (BAYER AKTIENGESELLSCHAFT, priority 2021, published 2024)

Experiments:
Format in all cases: in vivo
[1] = tested on: Stellaria media (STEME); assay: Herbicidal post-emergence action, section B (Table B9); conditions: visual rating about 3 weeks after treatment vs untreated controls
Procedure, shortened: (§1)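 Greenhouse post-emergence spray on one-leaf-stage plants (sown in sandy loam, 2 to 3 weeks old). WP/EC formulations in water + 0.5% additive, 600 liters per hectare. Read-out: visual % activity vs untreated, ~3 weeks after treatment; 100% = dead, 0% = as control.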

[2] = tested on: Lolium rigidum (LOLRI); assay: Herbicidal post-emergence action, section B (Table B5); conditions: application rate 1280 g/ha, visual rating about 3 weeks after treatment vs untreated controls
Experimental: (§2) Seeds of mono- and dicotyledonous weed plants were placed in plastic pots in sandy loam soil (doubly sown with in each case one species of mono- or dicotyledonous weed plants per pot), covered with soil and cultivated in a greenhouse under controlled growth conditions. 2 to 3 weeks after sowing, the test plants were treated at the one-leaf stage. The compounds of the invention, formulated in the form of wettable powders (WP) or as emulsion concentrates (EC), were applied onto the green parts of the plants as aqueous suspension or emulsion with addition of 0.5% additive at a water application rate of 600 liters per hectare (converted). After the test plants had been kept in the greenhouse under optimum growth conditions for about 3 weeks, the activity of the preparations was rated visually in comparison to untreated controls. For example, 100% activity=the plants have died, 0% activity=like control plants.

[3] = tested on: Amaranthus retroflexus (AMARE); assay: Herbicidal post-emergence action, section B (Table B11); conditions: visual rating about 3 weeks after treatment vs untreated controls
Procedure, shortened: as §1

[4] = tested on: Veronica persica (VERPE); assay: Herbicidal pre-emergence action, section A (Table A10)
Procedure, shortened: (§3)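 Sandy loam pots, seeds covered with soil, treated on the soil surface with aqueous WP or EC preparations containing 0.5% additive (600 l/ha). Visual damage rating after ca. 3 weeks in greenhouse; scale 0% (as control) to 100% (plants died off).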

[5] = tested on: Veronica persica (VERPE); assay: Herbicidal post-emergence action, section B (Table B10); conditions: Veronica persica, post-emergence, 504 h; application rate 320 g/ha; visual rating about 3 weeks after treatment vs untreated controls; read-out: post-emergence activity against VERPE in %
Procedure, shortened: as §1

[6] = tested on: Stellaria media (STEME); assay: Herbicidal pre-emergence action, section A (Table A9); conditions: application rate 320 g/ha
Procedure, shortened: as §3

[7] = tested on: Abutilon theophrasti (ABUTH); assay: Herbicidal post-emergence action, section B (Table B1); conditions: Abutilon theophrasti, 504 h, application rate 1280 g/ha, rated visually after about 3 weeks, read-out: post-emergence activity against ABUTH in %
Experimental: as §2

[8] = tested on: Poa annua (POAAN); assay: Herbicidal pre-emergence action, section A (Table A7); conditions: application rate 320 g/ha, visual grading after ca. 3 weeks vs untreated controls
Procedure, shortened: as §3

[9] = tested on: Matricaria inodora (MATIN); assay: Herbicidal pre-emergence action, section A (Table A6); conditions: application rate 1280 g/ha, visual grading after ca. 3 weeks vs untreated controls
Procedure, shortened: as §3

[10] = tested on: Setaria viridis (SETVI); assay: Herbicidal post-emergence action, section B (Table B8); conditions: Setaria viridis, post-emergence, 504 h; application rate 320 g/ha; visual rating about 3 weeks after treatment vs untreated controls; read-out: post-emergence activity against SETVI in %
Experimental: as §2

[11] = tested on: Digitaria sanguinalis (DIGSA); assay: Herbicidal post-emergence action, section B (Table B12); conditions: Digitaria sanguinalis, post-emergence, 504 h; application rate 1280 g/ha; visual rating about 3 weeks after treatment vs untreated controls; read-out: post-emergence activity against DIGSA in %
Experimental: as §2

[12] = tested on: Kochia scoparia (KCHSC); assay: Herbicidal pre-emergence action, section A (Table A4); conditions: application rate 320 g/ha, visual grading after ca. 3 weeks vs untreated controls
Procedure, shortened: as §3

[13] = tested on: Setaria viridis (SETVI); assay: Herbicidal pre-emergence action, section A (Table A8); conditions: application rate 320 g/ha
Procedure, shortened: as §3

[14] = tested on: Echinochloa crus-galli (ECHCG); assay: Herbicidal post-emergence action, section B (Table B3); conditions: rated visually after about 3 weeks
Experimental: as §2

[15] = tested on: Poa annua (POAAN); assay: Herbicidal post-emergence action, section B (Table B7); conditions: Poa annua, post-emergence, 504 h; application rate 1280 g/ha; visual rating about 3 weeks after treatment vs untreated controls; read-out: post-emergence activity against POAAN in %
Procedure, shortened: as §1

[16] = tested on: Amaranthus retroflexus (AMARE); assay: Herbicidal pre-emergence action, section A (Table A11); conditions: application rate 320 g/ha
Procedure, shortened: as §3

[17] = tested on: Lolium rigidum (LOLRI); assay: Herbicidal pre-emergence action, section A (Table A5); conditions: application rate 320 g/ha, visual grading after ca. 3 weeks vs untreated controls
Procedure, shortened: as §3

[18] = tested on: Echinochloa crus-galli (ECHCG); assay: Herbicidal pre-emergence action, section A (Table A3); conditions: application rate 320 g/ha, visual grading after ca. 3 weeks vs untreated controls
Procedure, shortened: as §3

[19] = tested on: Digitaria sanguinalis (DIGSA); assay: Herbicidal pre-emergence action, section A (Table A12)
Procedure, shortened: as §3

[20] = tested on: Alopecurus myosuroides (ALOMY); assay: Herbicidal pre-emergence action, section A (Table A2); conditions: application rate 1280 g/ha; visual grading after ca. 3 weeks vs untreated controls
From the text: Seeds of mono- and dicotyledonous weed plants were sown in plastic pots (double sowings with one species of mono- and one species of dicotyledonous weed plants per pot), in sandy loam, and covered with soil. The compounds according to the invention, formulated in the form of wettable powders (WP) or as emulsifiable concentrates (EC), were applied to the surface of the covering soil as aqueous suspension or emulsion, with the addition of 0.5% of an additive, at an application rate of 600 l of water per hectare (converted). Following treatment, the pots were placed in a greenhouse and kept under optimum growth conditions for the test plants. The visual grading of the damage to the test plants was carried out after ca. 3 weeks in comparison to untreated controls (herbicidal effect in percent (%): 100% effect=plants have died off, 0% effect=as control plants).

Cc1cc2c(nc1-c1ccccc1Cl)N(S(C)(=O)=O)CS2 [Example I-142, 5-(2-chlorophenyl)-6-methyl-3-(methylsulfonyl)-2,3-dihydro[1,3]thiazolo[4,5-b]pyridine]
pest or weed control at 1280 g/ha ([1]; Stellaria media, post-emergence, 504 h, application rate 1280 g/ha, read-out: post-emergence activity against STEME in %): 90% | pest or weed control at 1280 g/ha ([2]; Lolium rigidum, post-emergence, 504 h, read-out: post-emergence activity against LOLRI in %): 90% | pest or weed control at 320 g/ha ([3]; Amaranthus retroflexus, post-emergence, 504 h, application rate 320 g/ha, read-out: post-emergence activity against AMARE in %): 90% | pest or weed control at 320 g/ha ([4]; Veronica persica, 504 h, application rate 320 g/ha, read-out: pre-emergence activity against VERPE in %): 90% | pest or weed control at 320 g/ha [5]: 90% | pest or weed control at 320 g/ha ([6]; Stellaria media, 504 h, read-out: pre-emergence activity against STEME in %): 90% | pest or weed control at 1280 g/ha [7]: 90% | pest or weed control at 320 g/ha ([8]; Poa annua, pre-emergence, 504 h, read-out: pre-emergence activity against POAAN in %): 100% | pest or weed control at 1280 g/ha ([9]; Tripleurospermum inodorum, pre-emergence, 504 h, read-out: pre-emergence activity against MATIN in %): 90% | pest or weed control at 320 g/ha [10]: 90% | pest or weed control at 1280 g/ha [11]: 90% | pest or weed control at 320 g/ha ([12]; Bassia scoparia, pre-emergence, 504 h, read-out: pre-emergence activity against KCHSC in %): 90% | pest or weed control at 320 g/ha ([13]; Setaria viridis, 504 h, read-out: pre-emergence activity against SETVI in %): 100% | pest or weed control at 320 g/ha ([14]; Echinochloa crus-galli, 504 h, application rate 320 g/ha, read-out: post-emergence activity against ECHCG in %): 90% | pest or weed control at 1280 g/ha [15]: 90% | pest or weed control at 320 g/ha ([16]; Amaranthus retroflexus, 504 h, read-out: pre-emergence activity against AMARE in %): 90% | pest or weed control at 320 g/ha ([17]; Lolium rigidum, pre-emergence, 504 h, read-out: pre-emergence activity against LOLRI in %): 100% | pest or weed control at 320 g/ha ([18]; Echinochloa crus-galli, pre-emergence, 504 h, read-out: pre-emergence activity against ECHCG in %): 100% | pest or weed control at 1280 g/ha ([19]; Digitaria sanguinalis, 504 h, application rate 1280 g/ha, read-out: pre-emergence activity against DIGSA in %): 100%

Cc1cc2c(nc1-c1cccc(F)c1F)N(C(=O)C13CCCC1C(Cl)=NO3)CS2 (stereo not shown) [Example I-156]
post-emergence activity against STEME in % ([1]; application rate 320 g/ha): 90% | post-emergence activity against LOLRI in % [2]: 90% | pre-emergence activity against ALOMY in % [20]: 90% | post-emergence activity against AMARE in % ([3]; application rate 1280 g/ha): 90% | pre-emergence activity against VERPE in % ([4]; application rate 1280 g/ha): 90% | pre-emergence activity against STEME in % [6]: 90% | pre-emergence activity against POAAN in % [8]: 100% | pre-emergence activity against MATIN in % [9]: 90% | pre-emergence activity against KCHSC in % [12]: 90% | pre-emergence activity against SETVI in % [13]: 100% | post-emergence activity against ECHCG in % ([14]; application rate 1280 g/ha): 90% | pre-emergence activity against AMARE in % [16]: 90% | pre-emergence activity against LOLRI in % [17]: 90% | pre-emergence activity against ECHCG in % [18]: 90% | pre-emergence activity against DIGSA in % ([19]; application rate 320 g/ha): 90%
